The source of these data is ChEMBL document CHEMBL3507680, “University of Dundee, Gates Library screen for HepG2 cell viability”.

The series can be described thus: Human HepG2 cell viability assay in 384 well format. It counts as toxicity, cell-based. Set-up: dose 125 nL, time 70.5 hour; concentration not given beside the values. The following applies: HepG2 cells, read-out: Inhibition.
`CN1C(=O)C2(CCN(C(=O)C3CCOCC3)CC2)c2ccccc21`: the cytotoxicity at 70.5 h was -3.31%. Regarding `O=C(CCc1ccccc1)N[C@H]1CC[C@@]2(CCC(=O)N2)CC1`, the cytotoxicity at 70.5 h is -8.44%.

As for `COc1ccc(C[C@H]2CN(C(=O)c3cc(C)no3)CC[C@H]2OC)cc1`, the cytotoxicity at 70.5 h is -5.12%. The result for `Cc1ccc(CN2CCC3(CCCN3C(=O)C(C)C)CC2)o1` reads 5%; that for `O=C(C1CCC1)N1C[C@@H]2CN(c3ccccc3)C(=O)[C@@H]2C1`, 11%; that for `CO[C@H]1CCN(C(=O)c2cc(C)on2)C[C@@H]1Cc1ccccc1`, 5.73%.

Take `CN(C)CC(=O)N1CC2(CCN(S(=O)(=O)c3ccccc3)C2)C1`: the cytotoxicity at 70.5 h is -6.71%. The same measure for `NCC1[C@H]2CN(Cc3cccc(Cl)c3)C[C@@H]12` (stereo not given in full): -5.77%; for `CCS(=O)(=O)N1CCC2(CC(=O)N(c3ccccc3C)C2)C1` (stereo not given): 21.9%; for `Cc1oncc1C(=O)N1CCC2(CC1)CN(S(C)(=O)=O)c1ccccc12`: -3.56%. In the case of `COc1ccc(CN2C[C@@H]3CN(C(=O)[C@H]4CCCO4)C[C@@H]3C2=O)cc1`, the cytotoxicity at 70.5 h was -4.12%. The same measure for `CN(C)CC(=O)N1CCC2(CCN(Cc3cccc(F)c3)CC2)C1`: -8.05%; for `O=C(NCCc1ccccn1)[C@@]12CCO[C@@H]1CCN(c1ncccn1)C2`: -2.15%.

As for `COc1ccc(C[C@H]2CN(C(=O)C3CC3)CC[C@H]2OC)cc1`, the cytotoxicity at 70.5 h amounted to 21.5%. Turning to `CCN1C(=O)CCC12CCCN(CCc1ccccc1)C2` (stereo not given), the cytotoxicity at 70.5 h turned out to be 34.9%. The same measure for `CN(C)CC(=O)N1CCC2(CC1)CN(Cc1ccccc1)C2`: 30.2%; for `CS(=O)(=O)N1CCN(c2ccc3ccc(C(=O)NC4CC4)cn23)CC1`: 0.444%. `COCCN1CCN(c2ccc3ccc(C(=O)NC4CC4)cn23)CC1`: the cytotoxicity at 70.5 h is -2.48%.

On to `O=C(c1ccco1)N1CCC2(CCC(=O)N2Cc2ccncc2)CC1`, for which the cytotoxicity at 70.5 h is -2.64%.

On to `COc1ccc(CC(=O)N2CCC3(CC2)CCN(CC(C)C)C3=O)cc1`, for which the cytotoxicity at 70.5 h was -10.5%. The result for `CC(=O)N1[C@H](CN(C)C)C[C@@H]2CN(C(=O)c3ccsc3)CC[C@@H]21` reads -12.2%; that for `CCN1C(=O)CCC12CCN(C(=O)c1ccco1)CC2`, -11.8%.

With `CC(=O)NCC(=O)N1CCC2(CC1)C(=O)N(CC1CC1)c1ccccc12`, the cytotoxicity at 70.5 h was -11.7%. The same measure for `O=C(NC1CC1)[C@H]1C[C@H]2OCC[C@H]2N(Cc2ccco2)C1`: -8.44%; for `CCOCC1CN(Cc2cc(C)on2)Cc2cn(C)nc21` (stereo not given): 4.78%. The same measure for `O=C1NC(c2ccccc2)=N[C@@]12CC[C@@H]1CN(S(=O)(=O)C3CC3)C[C@@H]12`: 2.16%; for `CN(C)CCOCC1CN(C(=O)c2ccccn2)Cc2ccnn2C1` (stereo not given): 6.38%. The same measure for `O=C(c1ccc(Cl)cc1)N1CCc2nc(C(=O)N3CCCC3)sc2CC1`: 7.75%; for `CN(C)C(=O)CC1CC2(CCN(CC3CC3)CC2)Oc2ccccc21` (stereo not given): -3.69%; for `O=C1Nc2ccccc2C12CCN(c1nccs1)CC2`: -3.17%. `O=C1CC[C@]2(CC[C@@H](NC(=O)NCc3cccnc3)CC2)N1`: the cytotoxicity at 70.5 h is -2.72%. As to `Cc1ccc(CN2CC[C@H]3NC(=O)CC[C@@H]32)o1`, the cytotoxicity at 70.5 h is -6.53%.

As for `COCCN1C[C@@H]2[C@@H](OC)CCN(C(=O)Cc3ccsc3)[C@@H]2C1`, the cytotoxicity at 70.5 h was -8.01%. The result for `O=C(Cc1ccccc1)N1CCC2(CCN2Cc2ccc(F)cc2)C1` (stereo not given) reads 7.36%. The result for `COCCN1CCC2(CC1)CC(NC(=O)CC1CC1)c1ccccc1O2` (stereo not given) reads -6.99%; that for `O=C1N(Cc2cccc(F)c2)CCC12CCN(c1ccccn1)CC2`, -8.45%. The same measure for `COCC(=O)NC1CC2(CCN(CC3CC3)CC2)Oc2ccccc21` (stereo not given): 18.1%. As for `CN1C(=O)CC[C@]12CC[C@@H](NCc1ccsc1)CC2`, the cytotoxicity at 70.5 h was -5.76%. On to `CN(C)CCN1C(=O)CCC12CCCN(C(=O)C1CC=CC1)CC2` (stereo not given), for which the cytotoxicity at 70.5 h was -1.28%.

Regarding `COC1COC2(CCN(Cc3ccc4c(c3)OCO4)CC2)C1` (stereo not given), the cytotoxicity at 70.5 h was 0.98%. For `Cc1cccc(CN2C[C@@H]3CN(C(=O)NC(C)C)C[C@@H]3C2=O)n1`, the cytotoxicity at 70.5 h was -12%. Consider `Cc1cccc(CN2C[C@@H]3CN(C(=O)c4ccco4)C[C@@H]3C2=O)n1`, for which the cytotoxicity at 70.5 h is -13.1%. The same measure for `O=C1CCCN1Cc1nnc2n1CCN(Cc1ccccn1)CC2`: -7.47%; for `Cc1cccc(CN2C[C@@H]3CN(C(=O)c4cnoc4C)C[C@@H]3C2=O)n1`: -5.42%; for `Cc1ccc(CN2CCc3nnc(CN4CCCC4=O)n3CC2)s1`: -7.74%. The result for `CC(C)Oc1ncnc2c1CCN(Cc1ccc(F)cc1)CC2` reads -5.44%; that for `CC(C)NC(=O)[C@H]1C[C@@H]2[C@@H](C1)OCCN2Cc1cccs1`, -2.88%; that for `CNC(=O)[C@H]1C[C@H]2OCC[C@H]2N(CC2CC2)C1`, -3.14%. Consider `O=C(NC1CC1)[C@H]1C[C@H]2OCC[C@H]2N(Cc2ccc(F)cc2)C1`, for which the cytotoxicity at 70.5 h was -6.46%. The result for `CCOc1ncnc2c1CCN(Cc1cccs1)CC2` reads -8.1%; that for `O=C([C@H]1C[C@H]2OCC[C@H]2N(Cc2ccco2)C1)N1CCCO1`, -14.8%. The same measure for `O=C(C1=CCCC1)N1CC[C@]2(C[C@H](OCc3cccnc3)CO2)C1`: -12.5%; for `COc1ccc(C[C@H]2CN(c3cc(OC)ncn3)CC[C@H]2OC)cc1`: 11.6%; for `COCC(=O)N1CCC2(CCN(Cc3cccnc3)C2)CC1`: -7.11%. The result for `COCCN1CCC2(CC1)CCN(Cc1ccccn1)CC2` reads -1.25%; that for `O=C1CC[C@]2(CC[C@@H](NCc3cccnc3)CC2)N1Cc1ccccc1`, -11.6%. For the compound `O=C(c1n[nH]c2c1CN(C1CCOC1)CC2)N1CCOCC1` (stereo not given), the cytotoxicity at 70.5 h is -2.91%. The result for `CCCN1CCC[C@]2(CCC(=O)N2Cc2ccncc2)[C@H]1CC` reads -4.44%; that for `O=C([C@H]1CN(Cc2cccnc2)C[C@H]2OCC[C@@H]12)N1CCCO1`, -6.93%. `O=C([C@H]1CN(Cc2ccncc2)C[C@H]2OCC[C@@H]12)N1CCCCO1`: the cytotoxicity at 70.5 h was -14.4%. As for `CN(C)CCO[C@H]1CN(Cc2ccoc2)[C@@H]2COC[C@H]12`, the cytotoxicity at 70.5 h worked out at 6.76%.

For `O=C(N[C@@H]1CN(c2ncccn2)C[C@@H]2CCCO[C@@H]21)c1cccnc1`, the cytotoxicity at 70.5 h worked out at 7.96%.

Take `CN(C)CCOCC1CN(C(=O)c2cccn2C)Cc2ccnn2C1` (stereo not given): the cytotoxicity at 70.5 h turned out to be 8.36%. Turning to `O=C1C[C@@H]2[C@H](CCN2Cc2ccccn2)N1Cc1ccncc1`, the cytotoxicity at 70.5 h was -4.28%.

As for `c1cncc(C[C@H]2[C@H](N3CCOCC3)CCN2Cc2nccs2)c1`, the cytotoxicity at 70.5 h is -3.76%.
